36 compounds from patent US6515124B2, “Dehydroamino acids” (Hoffman-La Roche Inc., priority 2000, dated 2003) can be followed below.

The target of assay [1] is T1, LFA-1 binding to immobilized ICAM-1 (Homo sapiens, UniProt P05107+P20701).
T1 construct: made in house; host or cells: transfected 293 cells (LFA-1)
The experiment in a line: LFA-1/ICAM-1 Protein-Protein Assay (solid-phase ELISA). The conditions noted are these: 5dICAM-Ig coated plates; membrane-bound LFA-1 from transfected 293 cells. As to the method: LFA-1/ICAM-1 Protein-Protein Assay
LFA-1/ICAM-1 antagonist activity, defined as the ability to block LFA-1 binding to immobilized ICAM-1, was quantitated using a solid-phase ELISA. Typically, fusion protein consisting of the entire extracellular domain of human ICAM-1 and the Fc domain of human IgG (5dICAM-Ig) was coated onto 96-well microtiter plates (0.15 μg in 100 μL PBS) overnight at 4° C. The plates were then blocked with 150 μL of 1% BSA/1 mM MnCl2/0.14 M NaCl/20 mM HEPES, pH 7.2 for 1 h at 37° C. and washed 3 times (150 μL each) with Wash Buffer (50 mM Tris, pH 7.4/100 mM NaCl/1 mM MnCl2/0.05% Tween 20). Stock solutions (100 μM in 100% DMSO) of test compounds were diluted 50 fold with 150 μL of Binding Buffer (0.05% BSA/0.05% Tween 20/1 mM MnCl2/0.14 M NaCl/20 mM HEPES, pH 7.2) plus 10% DMSO. A series of 1:4 dilutions were performed to achieve a concentration range of 0.12 nM-2 μM. Fifty μL per well of each dilution was added to the ICAM-1 coated plates, followed by 50 μL per well of membrane-bound LFA-1 (280 ng/mL in Binding Buffer) derived from transfected 293 cells. The plates were shaken vigorously for 1 min (room temperature) and gently for 2 h (37° C.). After incubation, the plates were washed 3 times (150 μL each) with Wash Buffer. Mouse anti-human integrin β2 monoclonal antibody was added (100 μL/well, 1 μg/ml in Binding Buffer) and allowed to incubate for 1 h (37° C.) with gentle agitation. The plates were then washed 3 times with Wash Buffer. HRP-conjugated goat anti-mouse IgG (100 μL/well, 1:1500 dilution in Binding Buffer) was added to each well, followed by incubation for 1 h (37° C.) and concluded by three washes (150 μL each) with Wash Buffer. TMB solution (100 μL per well) was added for color development (10 min). The reaction was stopped by the addition of 100 μL of 1M H3PO4 to each well. The plates were then read at 450 nm.
In general terms: ELISA stands for enzyme-linked immunosorbent assay.

Assay [2] deals with T lymphocyte proliferation (murine spleen cells). The assay can be described thus: Mixed Lymphocyte Reaction (MLR), one-way. The class given is cell-based, mice. The conditions noted are these: Mus musculus, T-lymphocyte, light or radiation study, 72 h, C57B1/6 spleen cells with irradiated BALB/c spleen cells; tritiated thymidine incorporation, 3 days. The text has this:
Mixed Lymphocyte Reaction (MLR)
Admixture of murine spleen cells from two different inbred strains of mice induces proliferation of T lymphocytes. The magnitude of T cell proliferation depends on the extent of disparity in the major histocompatibility antigens between the two strains. Splenic T lymphocytes from both strains proliferate due to alloantigen recognition, a process for which the interaction of ICAM-1 on antigen-presenting cells with LFA-1 on lymphocytes is necessary. The ability of antagonists to inhibit T lymphocyte proliferation following recognition of alloantigens was assessed in a one-way MLR, where cells from one strain were irradiated to permit measurement of the proliferative response of cells from the other strain. Spleen cells were washed three times in tissue culture medium (TCM; see below). Fifty microliters of a spleen cell suspension (prepared at 10×10^6 cells/ml in TCM) obtained from C57B1/6 mice were added to an equal number of lethally-irradiated (2000 rads) spleen cells obtained from BALB/c mice in a 96-well U-bottom tissue culture plate (Costar, 3799). One hundred microliters of serial dilutions of antagonists or TCM were added to the spleen cell mixture. The total volume in each well was 200 μL. TCM was RPMI1640 containing 10% heat-inactivated fetal bovine serum, […] L-glutamine, 100 Units/ml each of penicillin and streptomycin and 5×10^−5 M 2-mercaptoethanol. Dilutions of antagonists were prepared in TCM. Plates were incubated in 5% CO2 for 3 days. On the third day, 0.5 μCi of tritiated thymidine (10 μCi/mL) was added to all the wells. Cells were harvested 6 h later on a 96-well plate harvester and the amount of tritiated thymidine incorporated was assessed in a liquid scintillation counter.
(In general: Uptake of a labelled nucleoside into DNA is a usual measure of proliferation.)

The structures appear in SMILES notation.

T1 sequence (P20701 26-1170): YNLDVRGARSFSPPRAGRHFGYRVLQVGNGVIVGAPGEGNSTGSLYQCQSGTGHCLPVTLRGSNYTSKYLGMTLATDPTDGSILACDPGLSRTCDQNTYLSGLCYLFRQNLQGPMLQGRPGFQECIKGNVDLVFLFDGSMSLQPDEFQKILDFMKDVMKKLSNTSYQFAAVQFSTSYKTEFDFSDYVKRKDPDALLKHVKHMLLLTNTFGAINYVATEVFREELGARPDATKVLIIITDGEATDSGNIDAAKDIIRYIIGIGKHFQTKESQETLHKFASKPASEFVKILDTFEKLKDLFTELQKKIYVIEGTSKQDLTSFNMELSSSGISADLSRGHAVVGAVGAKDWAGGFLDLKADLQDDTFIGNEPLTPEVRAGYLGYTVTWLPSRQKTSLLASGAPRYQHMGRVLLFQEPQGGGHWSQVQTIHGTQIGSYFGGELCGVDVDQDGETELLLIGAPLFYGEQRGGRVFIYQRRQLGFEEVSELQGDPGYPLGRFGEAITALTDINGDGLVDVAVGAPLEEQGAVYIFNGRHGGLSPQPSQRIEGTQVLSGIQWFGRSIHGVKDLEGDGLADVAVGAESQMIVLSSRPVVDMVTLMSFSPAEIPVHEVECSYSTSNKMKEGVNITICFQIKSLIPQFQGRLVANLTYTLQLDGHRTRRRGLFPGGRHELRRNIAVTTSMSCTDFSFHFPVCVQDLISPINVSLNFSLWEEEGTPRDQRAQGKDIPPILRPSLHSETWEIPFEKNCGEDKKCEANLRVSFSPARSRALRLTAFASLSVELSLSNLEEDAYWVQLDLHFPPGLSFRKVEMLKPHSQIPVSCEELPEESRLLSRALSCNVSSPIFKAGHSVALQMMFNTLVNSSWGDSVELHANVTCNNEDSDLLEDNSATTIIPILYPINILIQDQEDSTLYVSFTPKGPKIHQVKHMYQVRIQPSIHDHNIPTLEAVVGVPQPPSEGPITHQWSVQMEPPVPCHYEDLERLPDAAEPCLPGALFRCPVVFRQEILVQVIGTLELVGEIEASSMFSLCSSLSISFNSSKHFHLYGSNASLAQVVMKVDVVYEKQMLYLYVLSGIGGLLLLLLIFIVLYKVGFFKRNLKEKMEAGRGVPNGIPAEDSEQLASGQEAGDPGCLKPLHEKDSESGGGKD
T1 sequence (P05107 23-769): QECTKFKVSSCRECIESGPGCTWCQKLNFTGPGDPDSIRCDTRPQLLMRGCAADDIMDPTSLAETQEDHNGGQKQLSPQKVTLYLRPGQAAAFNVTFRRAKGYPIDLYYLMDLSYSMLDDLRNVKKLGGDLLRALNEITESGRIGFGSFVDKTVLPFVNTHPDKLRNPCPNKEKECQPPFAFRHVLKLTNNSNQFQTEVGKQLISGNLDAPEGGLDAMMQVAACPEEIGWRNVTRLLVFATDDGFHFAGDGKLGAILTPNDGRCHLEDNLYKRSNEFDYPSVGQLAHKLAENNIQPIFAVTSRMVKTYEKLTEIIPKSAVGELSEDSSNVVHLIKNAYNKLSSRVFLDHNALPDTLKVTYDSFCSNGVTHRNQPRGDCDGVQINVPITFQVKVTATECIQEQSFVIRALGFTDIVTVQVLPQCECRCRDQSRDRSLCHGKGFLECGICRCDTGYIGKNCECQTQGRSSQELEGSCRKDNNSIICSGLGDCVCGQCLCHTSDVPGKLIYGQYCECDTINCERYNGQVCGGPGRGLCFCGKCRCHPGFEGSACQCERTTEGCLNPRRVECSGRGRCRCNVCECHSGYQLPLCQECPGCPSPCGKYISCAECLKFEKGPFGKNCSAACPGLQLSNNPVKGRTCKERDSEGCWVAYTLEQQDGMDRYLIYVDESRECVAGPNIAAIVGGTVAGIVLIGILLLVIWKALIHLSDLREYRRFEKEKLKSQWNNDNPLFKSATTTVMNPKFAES

Broadly, the IC50 is the concentration that gives 50% inhibition. `O=C(O)/C(=C/c1ccccc1O)NC(=O)c1ccc(C(=O)NCc2cccc3[nH]ccc23)cc1Cl` [Example 309]: the IC50 was 18.7 nM in assay [1] and 14500 nM in assay [2].

As to `O=C(O)/C(=C/c1ccc2ccccc2n1)NC(=O)c1ccc(C(=O)NCc2cccc(O)c2)cc1Br` [Example 275], the IC50 in assay [1] was 42.5 nM.

For `O=C(O)/C(=C/c1cnc[nH]1)NC(=O)c1ccc(C(=O)NCc2cccc(O)c2)cc1Br` [Example 278], the IC50 in assay [1] was 2 nM; in assay [2], 1450 nM.

Consider `O=C(O)/C(=C/c1cnc2ccccc2c1)NC(=O)c1ccc(C(O)/C=C/c2cccc(O)c2)cc1Cl` (racemic) [Example 298, rac.-(Z)-2-[[2-Chloro-4-[(E)-1-hydroxy-3-(3-hydroxyphenyl)prop-2-en-1-yl]benzoyl]amino]-3-(quinolin-3-yl)propenoic Acid], for which the IC50 in assay [1] was 4.26 nM; in assay [2] it was 6200 nM.

`Cc1cc(C(=O)N[C@H](C)c2cccc3ccccc23)cc(C)c1C(=O)N/C(=C\c1cnc2ccccc2c1)C(=O)O` [Example 241]: the IC50 in assay [1] is 2.04 nM; in assay [2], 2600 nM.

Take `Cc1cc(C(=O)NCc2cccc(O)c2)cc(Cl)c1C(=O)N/C(=C\c1cnc2ccccc2c1)C(=O)O` [Example 292, (Z)-2-[[2-Chloro-4-[[(3-hydroxybenzyl)amino]carbonyl]-6-methylbenzoyl]amino]-3-(quinolin-3-yl)propenoic Acid]: the IC50 in assay [1] amounted to 0.54 nM; in assay [2], 925 nM.

Consider `Cc1nc(C)c(/C=C(\NC(=O)c2ccc(C(=O)NCc3cccc(O)c3)cc2Cl)C(=O)O)s1` [Example 244], for which the IC50 in assay [1] was determined as 1.95 nM; in assay [2], 3000 nM.

As to `O=C(O)/C(=C/c1ccc2[nH]nnc2c1)NC(=O)c1ccc(C(=O)NCc2cccc3[nH]ccc23)cc1Br` [Example 286], the IC50 turned out to be 0.74 nM in assay [1] and 1200 nM in assay [2].

For `O=C(O)/C(=C/CC1CCCCN1)NC(=O)c1ccc(C(=O)NCc2cccc(O)c2)cc1Br` (racemic) [Example 320], the IC50 in assay [1] amounted to 140 nM. In other words, the sub-micromolar range.

Regarding `Nc1cccc(CNC(=O)c2ccc(C(=O)N/C(=C\c3cnc4ccccc4c3)C(=O)O)c(Br)c2)c1` [Example 322], the IC50 came to 1.74 nM in assay [1] and 4450 nM in assay [2].

In the case of `O=C(O)/C(=C/c1cnc2ccccc2c1)NC(=O)c1ccc(C(=O)CCc2cccc(O)c2)cc1Cl` [Example 294, (Z)-2-[[2-Chloro-4-[3-(3-hydroxyphenyl)-1-oxopropan-1-yl]benzoyl]amino]-3-(quinolin-3-yl)propenoic Acid], the figures for the IC50 in assay [1] and in assay [2] were 2.38 nM and 13000 nM, respectively.

In turn, `C[C@@H](NC(=O)c1cc(Cl)c(C(=O)N/C(=C\c2ccc3[nH]nnc3c2)C(=O)O)c(Cl)c1)c1cccc2ccccc12` [Example 242] returned an IC50 in assay [1] of 22 nM.

Turning to `O=C(O)/C(=C/c1ccncc1)NC(=O)c1ccc(C(=O)NCc2cccc(O)c2)cc1Br` [Example 280], the IC50 in assay [1] stood at 5 nM; in assay [2], 860 nM.

In turn, `O=C(O)/C(=C/c1nc2ccccc2s1)NC(=O)c1ccc(C(=O)NCc2cccc(O)c2)cc1Br` [Example 276] returned an IC50 in assay [1] of 50.6 nM.

With `C[C@@H](NC(=O)c1ccc(C(=O)N/C(=C\c2cccs2)C(=O)O)c(Cl)c1)c1cccc2ccccc12` [Example 327], the IC50 in assay [1] was 20.4 nM.

As for `Cc1cc(C(=O)NCc2cccc(O)c2)cc(C)c1C(=O)N/C(=C\c1ccc2[nH]nnc2c1)C(=O)O` [Example 326, (Z)-3-(1H-Benzotriazol-5-yl)-2-[[4-[[(3-hydroxybenzyl)amino]carbonyl]-2,6-dimethylbenzoyl]amino]propenoic Acid], the IC50 in assay [1] came to 1.12 nM.

`O=C(O)/C(=C/C1CCNCC1)NC(=O)c1ccc(C(=O)NCc2cccc(O)c2)cc1Br` [Example 319] gave an IC50 in assay [1] of 72 nM.

Take `Cc1nc(C(C)C)c(/C=C(\NC(=O)c2ccc(C(=O)NCc3cccc(O)c3)cc2Br)C(=O)O)s1` [Example 259]: the IC50 in assay [1] worked out at 8.14 nM.

In assay [1], `Cn1c(/C=C(\NC(=O)c2ccc(C(=O)NCc3cccc(O)c3)cc2Br)C(=O)O)nc2ccccc21` [Example 288] returned a half-maximal inhibitory concentration (IC50) of 201 nM.

For the compound `O=C(O)/C(=C/c1cccs1)NC(=O)c1ccc(C(=O)NCc2cccc(O)c2)cc1Br` [Example 271], the IC50 in assay [1] worked out at 33 nM.

For the compound `Cc1cc(C(=O)NCc2cc(F)cc(F)c2)cc(C)c1C(=O)N/C(=C\c1[nH]cnc1C)C(=O)O` [Example 250, (Z)-2-[[4-[[(3,5-Difluorobenzyl)amino]carbonyl]-2,6-dimethylbenzoyl]amino]-3-(4-methyl-1H-imidazol-5-yl)propenoic Acid], the IC50 in assay [1] was 37 nM.

In assay [1], `O=C(O)/C(=C/c1ccccn1)NC(=O)c1ccc(C(=O)NCc2cccc3[nH]ccc23)cc1Cl` [Example 310] yielded an IC50 of 56.1 nM.

On to `O=C(O)/C(=C/c1ccsc1)NC(=O)c1ccc(C(=O)NCc2cccc(O)c2)cc1Br` [Example 313], for which, in assay [1], the IC50 came out at 8.2 nM.

Compound `CC/C=C(\NC(=O)c1ccc(C(=O)NCc2cccc(O)c2)cc1Br)C(=O)O` [Example 289] came in with an IC50 in assay [1] of 40.9 nM. This IC50 lies about 5-fold higher than the previous one.

In turn, `CC(C)c1csc(/C=C(\NC(=O)c2ccc(C(=O)NCc3cccc(O)c3)cc2Br)C(=O)O)n1` [Example 256] registered an IC50 in assay [1] of 279 nM. This IC50 is about 6.8-fold higher than that of the compound before.

As to `O=C(O)/C(=C/c1ccoc1)NC(=O)c1ccc(C(=O)NCc2cccc(O)c2)cc1Br` [Example 243], the IC50 in assay [1] stood at 13.2 nM.

Turning to `O=C(O)/C(=C/c1nc(C(F)(F)F)cs1)NC(=O)c1ccc(C(=O)NCc2cccc(O)c2)cc1Br` [Example 257], in assay [1], the IC50 was 101 nM.

`CCc1nc(C(C)C)c(/C=C(\NC(=O)c2ccc(C(=O)NCc3cccc(O)c3)cc2Cl)C(=O)O)s1` [Example 303, (Z)-2-[[2-Chloro-4-[[3-(3-hydroxybenzyl)amino]carbonyl]benzoyl]amino]-3-[2-ethyl-4-(1-methylethyl)thiazol-5-yl]propenoic Acid] showed an IC50 in assay [1] of 190 nM. This IC50 lies about 1.9-fold higher than the previous one.

Turning to `Cc1cc(C(=O)N[C@H](C)c2cccc3ccccc23)cc(C)c1C(=O)N/C(=C\c1ccc2[nH]nnc2c1)C(=O)O` [Example 239], in assay [1], the IC50 turned out to be 2.15 nM. This IC50 lies about 88-fold lower than the previous one.

`COc1ncc(/C=C(\NC(=O)c2ccc(C(=O)NCc3cccc(O)c3)cc2Br)C(=O)O)c(OC)n1` [Example 284] displayed an IC50 in assay [1] of 12.6 nM.

Take `O=C(O)/C(=C/c1cnc2ccccc2c1)NC(=O)c1ccc(C(=O)NCc2ccc3cc[nH]c3c2)cc1Cl` [Example 324, (Z)-2-[[2-Chloro-4-[[[(1N-indol-6-yl)methyl]amino]carbonyl]benzoyl]amino]-3-(quinolin-3-yl)propenoic Acid]: the IC50 in assay [1] is 50.8 nM.

Compound `Cc1cc(C(=O)N[C@H](C)c2cccc3ccccc23)cc(C)c1C(=O)N/C(=C\c1ccncc1)C(=O)O` [Example 238] returned a half-inhibitory concentration (IC50) in assay [1] of 16.7 nM.

In assay [1], `O=C(O)/C(=C/c1cccs1)NC(=O)c1ccc(C(=O)NCc2cccc3[nH]ccc23)cc1Cl` [Example 308] showed an IC50 of 56.3 nM. This IC50 lies about 3.4-fold higher than the previous one.

Regarding `O=C(O)/C(=C/C1CCCNC1)NC(=O)c1ccc(C(=O)NCc2cccc(O)c2)cc1Br` (racemic) [Example 318], the IC50 in assay [1] amounted to 171 nM.

Compound `O=C(O)/C(=C/c1cnnc2ccccc12)NC(=O)c1ccc(C(=O)NCc2cccc(O)c2)cc1Br` [Example 265] displayed an IC50 in assay [1] of 124 nM.

In assay [1], `O=C(O)/C(=C/c1cnc(-c2cccs2)s1)NC(=O)c1ccc(C(=O)NCc2cccc(O)c2)cc1Br` [Example 262] showed an IC50 of 123 nM.
